Assay results as given in US20230218542A1, “MEDICAMENT FOR TREATING HYPERTENSION” (priority 2022, published 2023).

Test system: L-NAME-induced hypertensive rats
Experiment: Therapeutic effect on L-NAME-induced hypertensive rats (Effect Verification 1), tail artery pressure
Assay type: in vivo, SD rats
Conditions: for antihypertensive effect (overall finding): SBP and DBP, three weeks of administration; for comparison of SBP with that in the group M: after the end of the administration (third week)
Procedure: The tail artery pressure, including systolic blood pressure (SBP) and diastolic blood pressure (DBP), was measured in rats in the resting state at the same time using an ALC-NIBP noninvasive blood pressure measuring instrument. One hundred and fifty-two 6-week-old male SD rats were taken and subjected to adaptive feeding for one week at room temperature of 18-26° C. with the relative humidity of 40%-70% and illumination by artificial lighting from 9:00 to 21:00 every day. After one week, blood pressure in all of them was measured, the results were charted using Excel 2010, and the experimental data were analyzed using SPSS 20.0, where P < 0.05 indicated statistical significance and the measurement data were expressed as x̅ ± s. […] According to the commonly used grading criteria for hypertension, SBP 140 mmHg is the critical value of hypertension, and every 20 mmHg is one grade. Every 10 mmHg of DBP is one grade. Therefore, SBP > 140 mmHg is set as mild hypertension and SBP > 160 mmHg is set as moderate hypertension; optionally, DBP increased by more than 10 mmHg is mild hypertension and DBP increased by more than 20 mmHg is moderate hypertension.
Rats with the blood pressure in the normal range measured in the step 1 above and the weight of 200 ± 20 g were randomly taken and grouped into 7 groups: a control group (K) containing 8 rats, a model control group (M), a ligustrazine administration group (TMP, 60 mg/kg), a cannabidiol administration group (CBD, 60 mg/kg), and combined administration groups of TMP and CBD (divided into three groups in different ratios of 2:1 (XA), 1:1 (XB) and 1:2 (XC), TMP = 60 mg/kg, and CBD was 30 mg/kg, 60 mg/kg and 120 mg/kg, respectively). 10 rats were contained in each remaining group. Except for group K, 12 mg/kg L-NAME was administered intragastrically to the rest at 9:00 every day to manufacture a hypertension model, and distilled water was administered in an equal amount to K group. By the fourth week, blood pressure was measured in each group, and after individuals with SBP < 140 mmHg were excluded from the model, each group was administered for three weeks, and drug vehicles were administered in an equal amount to groups K and M. Blood pressure was measured once a week during the administration period. (The animal model was fasted for two hours before the administration, and the medicament was bathed to room temperature. TMP solution at 1 mL/100 g was firstly administered intragastrically to the combined administration groups of TMP and CBD, and after 1 h interval, CBD solution at the corresponding half volume was then administered intragastrically.)
One-way ANOVA analysis (Duncan) was used for pairwise comparisons among groups, and paired-sample t-test was used for before-and-after comparisons within groups. The change trend of SBP of rats in each group is shown in FIG. 2 and the change trend of DBP of rats in each group is shown in FIG. 3, and the abscissa “0” represents the fourth week of molding, i.e., the beginning of the administration period.

[1] = one week of intragastric administration
[2] = three weeks of intragastric administration
[3] = two weeks of intragastric administration

Compound | antihypertensive effect (overall finding) | decrease of SBP (after the end of the administration) | comparison of SBP with that in the group M | Effect = (SBP in model group - SBP in administration group)/(SBP in model group - SBP in control group) [1] | Effect = (SBP in model group - SBP in administration group)/(SBP in model group - SBP in control group) [2] | Effect = (SBP in model group - SBP in administration group)/(SBP in model group - SBP in control group) [3]
C=C(C)[C@@H]1CCC(C)=C[C@H]1c1c(O)cc(CCCCC)cc1O [CBD, cannabidiol] | significant antihypertensive effect | more than 10 mmHg | significant difference | 0.3222 | 0.3418 | 0.3628
ligustrazine phosphate [TMP] | no significant antihypertensive effect |  | no significant difference | 0.0716 | 0.1722 | 0.0780
